US11000033B2, “Ketone or oxime compound, and herbicide” (NISSAN CHEMICAL CORPORATION, priority 2014, dated 2021)

Columns and labels:
Format in all cases: in vivo
Monochoria vaginalis = test: Test Example 1: herbicidal activity, application before weed generation in submerged conditions (symbol C); settings: application herbicide amount 320 g/ha
In short: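 Flooded alluvial soil (4 cm water) was mixed-sown with the three weed species, and 2.5-leaf rice seedlings were transplanted. On sowing day, a water-diluted emulsion at a predetermined rate was applied to the water surface. After 3 weeks in a 25–30 °C greenhouse, effect was scored 0–5.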

[1] = system: Echinochloa oryzacola Vasing.; test: Test Example 2: herbicidal activity, application during weed generation in submerged conditions (symbol A); settings: Table 23; application herbicide amount 320 g/ha; grade 0-5 by criteria of Test Example 1
In short: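 Flooded-soil post-emergence test: emulsion of compound, water-diluted to target rate, applied to paddy water surface at 1–2 leaf stage of mixed-sown weeds (alluvial soil, 4 cm water, 25–30° C. greenhouse); visual rating 3 weeks after application.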

Leptochloa chinensis = test: Test Example 3: herbicidal effect by foliage application, Wagner pot (symbol D); settings: application herbicide amount 320 g/ha
In short: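 Rating at 3 weeks post-spray, by defined criteria. Treatment: emulsion diluted with water to a predetermined amount, applied evenly to foliage of 14-day-old plants raised in alluvial soil flooded 0.1–0.5 cm deep at 25–30 °C, rice co-sown.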

Digitaria ciliaris = test: Test Example 4: herbicidal effect by soil treatment (symbol F); settings: application herbicide amount 320 g/ha
In short: (§1)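 Seeds were sown in sterilized diluvial soil, covered with about 1.5 cm of soil, and the soil surface was sprayed with a water-diluted emulsion of the compound at a predetermined rate. Plants grew in a greenhouse at 25° C. to 30° C.; effects were scored visually 3 weeks after application.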

Setaria viridis = test: Test Example 4: herbicidal effect by soil treatment (symbol G); settings: application herbicide amount 320 g/ha
In short: as §1

Apera spica-venti = test: Test Example 5: herbicidal effect by foliage application, plastic box (symbol L); settings: 320 g/ha, 3 weeks after application
In short: (§2)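 After sowing into sterilized diluvial soil and growing two weeks under glass at 25° C. to 30° C., seedlings receive a uniform foliar spray of diluted emulsion. Damage is judged visually three weeks on.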

Abutilon theophrasti = test: Test Example 5: herbicidal effect by foliage application, plastic box (symbol M); settings: 320 g/ha, 3 weeks after application
In short: as §2

Amaranthus retroflexus = test: Test Example 5: herbicidal effect by foliage application, plastic box (symbol N); settings: 320 g/ha, 3 weeks after application
In short: as §2

Chenopodium album = test: Test Example 5: herbicidal effect by foliage application, plastic box (symbol O); settings: 320 g/ha, 3 weeks after application
In short: as §2

Galium spurium = test: Test Example 5: herbicidal effect by foliage application, plastic box (symbol Q); settings: 320 g/ha, 3 weeks after application
In short: as §2

corn = test: Test Example 5: effect on crop by foliage application, plastic box (symbol c); settings: 320 g/ha, 3 weeks after application
In short: (§3)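 Diluvial soil, sterilized and boxed (21 × 13 × 7 cm), received spot-sown seed covered by about 1.5 cm soil; plants were then greenhouse-grown at 25–30° C.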

soybean = test: Test Example 5: effect on crop by foliage application, plastic box (symbol d); settings: 320 g/ha, 3 weeks after application
In short: as §3

beet = test: Test Example 5: effect on crop by foliage application, plastic box (symbol f); settings: 320 g/ha, 3 weeks after application
In short: as §3

rapeseed = test: Test Example 5: effect on crop by foliage application, plastic box (symbol g); settings: 320 g/ha, 3 weeks after application
In short: as §3

SMILES | Herbicidal effect grade, C: Monochoria vaginalis (Monochoria vaginalis) | Herbicidal effect grade, A: Echinochloa oryzacola Vasing. [1] | herbicidal effect on D (Leptochloa chinensis), grade 0-5 (Leptochloa chinensis) | F: Digitaria ciliaris, herbicidal effect grade (Digitaria ciliaris) | G: Setaria viridis, herbicidal effect grade (Setaria viridis) | L: Apera spica-venti, herbicidal effect grade (Apera spica-venti) | M: Abutilon theophrasti, herbicidal effect grade (Abutilon theophrasti) | N: Amaranthus retroflexus, herbicidal effect grade (Amaranthus retroflexus) | O: Chenopodium album, herbicidal effect grade (Chenopodium album) | Q: Galium spurium, herbicidal effect grade (Galium spurium) | c: corn, effect on crop grade (corn) | d: soybean, effect on crop grade (soybean) | f: beet, effect on crop grade (beet) | g: rapeseed, effect on crop grade (rapeseed)
Cc1cc(C)c(C2=C(O)CC(CC(=O)C(C)C)C2=O)c(C)c1 (centres unmarked) [2-016] | 0 (Herbicidal ratio of 5% or lower (almost no effect)) | 4 (Herbicidal ratio of 70% or higher and lower than 90%) | 5 (Herbicidal ratio of 90% or more (almost completely withered)) | 5 (Herbicidal ratio of 90% or more (almost completely withered)) | 5 (Herbicidal ratio of 90% or more (almost completely withered)) | 4 (Herbicidal ratio of 70% or higher and lower than 90%) | 4 (Herbicidal ratio of 70% or higher and lower than 90%) | 3 (Herbicidal ratio of 40% or higher and lower than 70%) | 0 (Herbicidal ratio of 5% or lower (almost no effect)) | 0 (Herbicidal ratio of 5% or lower (almost no effect)) | 4 (Herbicidal ratio of 70% or higher and lower than 90%) | 3 (Herbicidal ratio of 40% or higher and lower than 70%) | 0 (Herbicidal ratio of 5% or lower (almost no effect)) | 4 (Herbicidal ratio of 70% or higher and lower than 90%)
CCC(CCC1CC(O)=C(c2c(C)cc(C)cc2C)C1=O)=NOC (mixture of isomers) [4-001] | 0 (Herbicidal ratio of 5% or lower (almost no effect)) | 0 (Herbicidal ratio of 5% or lower (almost no effect)) | 3 (Herbicidal ratio of 40% or higher and lower than 70%) | 2 (Herbicidal ratio of 20% or higher and lower than 40%) | 0 (Herbicidal ratio of 5% or lower (almost no effect)) | 2 (Herbicidal ratio of 20% or higher and lower than 40%) | 0 (Herbicidal ratio of 5% or lower (almost no effect)) | 0 (Herbicidal ratio of 5% or lower (almost no effect)) | 0 (Herbicidal ratio of 5% or lower (almost no effect)) | 0 (Herbicidal ratio of 5% or lower (almost no effect)) | 1 (Herbicidal ratio of 5% or higher and lower than 20%) | 0 (Herbicidal ratio of 5% or lower (almost no effect)) | 0 (Herbicidal ratio of 5% or lower (almost no effect)) | 
CON=C(C)CC1CC(O)=C(c2c(C)cc(-c3ccc(Cl)nc3)cc2C)C1=O (mixture of isomers) [6-035] | 1 (Herbicidal ratio of 5% or higher and lower than 20%) | 5 (Herbicidal ratio of 90% or more (almost completely withered)) | 5 (Herbicidal ratio of 90% or more (almost completely withered)) | 5 (Herbicidal ratio of 90% or more (almost completely withered)) | 5 (Herbicidal ratio of 90% or more (almost completely withered)) | 5 (Herbicidal ratio of 90% or more (almost completely withered)) | 4 (Herbicidal ratio of 70% or higher and lower than 90%) | 5 (Herbicidal ratio of 90% or more (almost completely withered)) | 3 (Herbicidal ratio of 40% or higher and lower than 70%) | 4 (Herbicidal ratio of 70% or higher and lower than 90%) | 5 (Herbicidal ratio of 90% or more (almost completely withered)) | 2 (Herbicidal ratio of 20% or higher and lower than 40%) | 0 (Herbicidal ratio of 5% or lower (almost no effect)) | 4 (Herbicidal ratio of 70% or higher and lower than 90%)
CC#Cc1cc(C)c(C2=C(O)CC(CC(C)=NOC)C2=O)c(C)c1 (mixture of isomers) [6-009] | 0 (Herbicidal ratio of 5% or lower (almost no effect)) | 3 (Herbicidal ratio of 40% or higher and lower than 70%) | 5 (Herbicidal ratio of 90% or more (almost completely withered)) | 5 (Herbicidal ratio of 90% or more (almost completely withered)) | 5 (Herbicidal ratio of 90% or more (almost completely withered)) | 5 (Herbicidal ratio of 90% or more (almost completely withered)) | 3 (Herbicidal ratio of 40% or higher and lower than 70%) | 0 (Herbicidal ratio of 5% or lower (almost no effect)) | 2 (Herbicidal ratio of 20% or higher and lower than 40%) | 0 (Herbicidal ratio of 5% or lower (almost no effect)) | 5 (Herbicidal ratio of 90% or more (almost completely withered)) | 3 (Herbicidal ratio of 40% or higher and lower than 70%) | 2 (Herbicidal ratio of 20% or higher and lower than 40%) | 4 (Herbicidal ratio of 70% or higher and lower than 90%)
CCC(=O)CCC1CC(OC)=C(c2c(C)cc(C)cc2C)C1=O (centres unmarked) [5-002] | 0 (Herbicidal ratio of 5% or lower (almost no effect)) | 0 (Herbicidal ratio of 5% or lower (almost no effect)) | 0 (Herbicidal ratio of 5% or lower (almost no effect)) | 0 (Herbicidal ratio of 5% or lower (almost no effect)) | 0 (Herbicidal ratio of 5% or lower (almost no effect)) | 0 (Herbicidal ratio of 5% or lower (almost no effect)) | 0 (Herbicidal ratio of 5% or lower (almost no effect)) | 0 (Herbicidal ratio of 5% or lower (almost no effect)) | 0 (Herbicidal ratio of 5% or lower (almost no effect)) | 0 (Herbicidal ratio of 5% or lower (almost no effect)) | 0 (Herbicidal ratio of 5% or lower (almost no effect)) | 0 (Herbicidal ratio of 5% or lower (almost no effect)) | 0 (Herbicidal ratio of 5% or lower (almost no effect)) | 
